Article PMC5607274, “An iterative compound screening contest method for identifying target protein inhibitors using the tyrosine-protein kinase Yes” (Scientific Reports, 2017)

Target: T1, human recombinant Yes [a.a. 2–543 (end)] (Homo sapiens, UniProt P07947)
T1 construct: human recombinant Yes [a.a; 2–543 (end)]; purchased BPS Bioscience 40488
Assay: ADP-Glo kinase assay, inhibition rates of Yes phosphorylation activity (first and second screening)
Format: biochemical
Conditions: first screening; mean of n = 4 wells; 10 μmol L−1 compound
Description: All inhibitory assays of the phosphorylation activity of Yes were performed in accordance with the Promega Technical Manual for the ADP-Glo™ Kinase Assay (Fitchburg, WI, USA. Catalog number: V9102). The human recombinant Yes [a.a. 2–543 (end)] was purchased from BPS Bioscience (catalog number: 40488). The details of the assay protocol and reagent information are given elsewhere.
The screening was conducted in three steps consisting of the first screening, the second screening, and the IC50 determination, as can be illustrated in Fig. 1b. First, we determined the inhibition rates of the 1,991 compounds. Each compound was placed in 4 wells of a 384-well plate. In total, 80 compounds were assayed on one plate and the other wells were used for positive and negative controls. The compounds were randomly placed on plates so that compounds proposed by one group were not placed on a plate together. A mean of four inhibition rates for each compound was compared to criteria for the first screening. […] Second, the inhibition rates of the screened compounds were determined on one plate using the same procedure of the first screening, where compounds were dissolved from fresh powder. […] Screened compounds were then evaluated for their IC50 values.

T1 sequence (P07947 2-543): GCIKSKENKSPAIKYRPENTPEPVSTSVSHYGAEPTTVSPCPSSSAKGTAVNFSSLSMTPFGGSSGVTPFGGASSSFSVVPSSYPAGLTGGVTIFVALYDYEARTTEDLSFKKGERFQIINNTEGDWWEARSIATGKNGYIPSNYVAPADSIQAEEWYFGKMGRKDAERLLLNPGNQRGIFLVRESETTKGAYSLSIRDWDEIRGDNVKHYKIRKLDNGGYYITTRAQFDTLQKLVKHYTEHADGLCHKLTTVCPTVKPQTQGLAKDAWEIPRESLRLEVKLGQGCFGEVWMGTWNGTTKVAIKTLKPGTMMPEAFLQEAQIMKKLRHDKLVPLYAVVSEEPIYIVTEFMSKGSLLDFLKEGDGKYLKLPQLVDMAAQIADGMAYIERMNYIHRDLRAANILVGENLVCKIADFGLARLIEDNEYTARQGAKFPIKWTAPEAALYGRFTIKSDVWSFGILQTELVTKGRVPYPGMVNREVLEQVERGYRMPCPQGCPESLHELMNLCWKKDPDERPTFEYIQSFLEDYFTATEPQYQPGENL

Structure (SMILES)	First screening IR (inhibition rate) [%]
COc1ccc2c(c1)c(CC(=O)N1CCN(Cc3ccccc3)CC1)c(C)n2C(=O)c1ccc(Cl)cc1 [Compound Z27764077]	10
Cc1nc(/C=C2/C(=O)Nc3ccc(Cl)cc32)cs1 [Compound Z44304809]	13
N#Cc1ccc(Cl)cc1NC(=O)CSc1ncnc2ccccc12 [Compound Z19316082]	18
Nc1ncnc2sc3c(c12)CCN(C(=O)c1ccc2c(c1)CCC2)C3 [Compound Z168757250]	4
CN(Cc1ccc(OC(F)F)cc1)C(=O)CN1C(=O)NC(C)(c2ccccc2Br)C1=O (stereo not drawn) [Compound Z14158957]	23
O=C(NC1CCS(=O)(=O)C1)c1nc(Cl)c(Cl)c(Cl)c1Cl (stereo not drawn) [Compound Z118688092]	-7
CC(SCc1nc(N)nc(N(C)C)n1)C(=O)Nc1cc(F)ccc1F (stereo not drawn) [Compound Z197454478]	15
O=S(=O)(c1ccccc1Cl)N1CCN(Cc2nc(-c3cccc(C(F)(F)F)c3)no2)CC1 [Compound Z224344580]	-5
O=C(NCc1cccc(C(F)(F)F)c1)c1n[nH]c(=O)c2ccccc12 [Compound Z29859952]	6
COc1ccc(S(=O)(=O)N(C)Cc2ccc3c(c2)OCO3)cc1Br [Compound Z74745150]	-25
CCOC(=O)c1c(-c2ccc(OC)cc2)csc1NC(=O)CN1CCN(c2cccc(OC)c2)CC1 [Compound Z46356995]	9
O=S(=O)(N/N=C/c1ccc(N(c2ccccc2)c2ccccc2)cc1)c1ccc(Br)cc1 [Compound Z49646816]	27
CN(C)S(=O)(=O)c1cc(S(=O)(=O)c2ccc(Cl)c(S(=O)(=O)N(C)C)c2)ccc1Cl [Compound Z56862791]	1
CN(CC(=O)NC(=O)Nc1ccccc1F)C1CCCc2ccccc21 (stereo not drawn) [Compound Z52744280]	-6
O=C(/C=C/c1cn(-c2ccccc2)nc1-c1cccnc1)c1ccc(Cl)c([N+](=O)[O-])c1 [Compound Z46041361]	19
Cc1nn(CCC#N)c2nc(-c3cccnc3)cc(C(F)(F)F)c12 [Compound Z55426831]	-2
NC(=O)c1cc(-c2ccccc2)nc2c1cnn2Cc1ccc(Cl)cc1 [Compound Z116821638]	1
CCOc1ccc(N2C(C)=CC(=C(C#N)c3nc4ccccc4s3)C=C2C)cc1 [Compound Z223690154]	20

Structure (SMILES)	First screening IR (inhibition rate) [%]
COc1cccc(-c2cc(-c3ccccc3)c3cc(Cl)ccc3n2)c1.Cl [Compound Z48950797]	1
O=C(CN1C(=O)c2ccccc2C1=O)NCc1cn(Cc2ccccc2)nc1-c1ccccc1 [Compound Z230132198]	24
CCCCCn1c(N)c(C(=O)NCCN2CCOCC2)c2nc3ccccc3nc21 [Compound Z56872965]	48
CCOc1ccc(O)c(/C=C2\C(=O)Nc3ccc(Cl)cc32)c1 [Compound Z44304769]	23
O=C(/C=C/c1cc2ccccc2nc1N1CCOCC1)c1ccc(S(=O)(=O)N2CCCC2)cc1 [Compound Z46590414]	1
Cc1ccc(C)c(S(=O)(=O)CCN(C)Cc2nc3ccccc3c(=O)[nH]2)c1 [Compound Z46302631]	-9
CC(NC(=O)c1ccc2nc[nH]c2c1)c1ccc(F)c(F)c1 (stereo not drawn) [Compound Z28547957]	-1
COC(=O)c1cc(-c2ccc(OC)c(OC)c2)nc2c1c(C)nn2C1CCS(=O)(=O)C1 (stereo not drawn) [Compound Z91043666]	2
Cc1noc(C)c1S(=O)(=O)N1CCN(C(=O)CCc2c(C)[nH]c(=O)c(C#N)c2C)CC1 [Compound Z115241120]	12
COc1cc(/C=N/NC(=O)c2cc(-c3cccnc3)nc3ccccc23)ccc1OCc1ccc(Cl)cc1 [Compound Z49638448]	-1
O=S1(=O)CCC(SSC2CCS(=O)(=O)C2)C1 (stereo not drawn) [Compound Z57056477]	3
O=S1(=O)C=CCC1 [Compound Z56764769]	9
CS(=O)(=O)C1(S(C)(=O)=O)CCCCC1 [Compound Z56758188]	14
Cc1ccccc1Nc1nc(N)nc(CSc2nnc(NCc3ccccc3)s2)n1 [Compound Z19326161]	1
CCNC(=O)c1cc(-c2ccccc2)nc2c1cnn2Cc1ccccc1 [Compound Z227991512]	6
Cc1ccc(-n2nc(C)c3c(C(=O)Nc4nc(CN5CCOCC5)cs4)cc(-c4ccccc4)nc32)cc1 [Compound Z28032810]	-1
Cc1nn(C2CCS(=O)(=O)C2)c2nc(C3CC3)cc(C(=O)NCc3ccc4c(c3)OCO4)c12 (stereo not drawn) [Compound Z60362928]	5
COc1ccc(-c2cc(C(=O)OCc3ccccn3)c3ccccc3n2)cc1OC [Compound Z30610492]	-9

Second part, the compound after the results:

First screening IR (inhibition rate) [%]	Structure (SMILES)
-8	CCN(C(=O)c1ccc2c(c1)CC(c1ccccc1)OC2=O)c1ncc[nH]1 (stereo not drawn) [Compound Z1474089033]
2	NC(=O)c1cc(NC(=O)c2cccnc2Nc2cccc(F)c2)n[nH]1 [Compound Z1451063255]
0	Cc1cnn(-c2cccc(N3CCOC(c4ccc(F)cc4)C3)n2)c1 (stereo not drawn) [Compound Z1430532131]
10	O=C1CN(C(=O)c2nn(-c3ccc(F)cc3)c3c2CCCCC3)CCN1 [Compound Z254636716]
-8	CN(C)c1nc(N)nc(CSCCC(=O)Nc2ccccc2)n1 [Compound Z327260972]
13	O=C(Nc1cc(Cl)cc(Br)c1OC(F)F)C(=O)N1CCCSCC1 [Compound Z754942410]
44	CN(CCCC(=O)O)S(=O)(=O)c1cc(S(C)(=O)=O)ccc1Cl [Compound Z353969056]
-5	CC(C)c1nc2n(n1)CC(NCc1cc(-c3cccs3)on1)CC2 (stereo not drawn) [Compound Z1139411735]
11	Cc1cn2c3c(=O)n(CCN4CCCCC4)c(=O)n(C)c3nc2n1-c1ccc(Oc2ccccc2)cc1 [Compound Z247616328]
-31	CC(C)c1ccc2cc(C(=O)NCCN3CCS(=O)(=O)CC3)[nH]c2c1 [Compound Z649805708]
6	CC(NC(=O)C1=NN(c2ccc(F)cc2)C(C(N)=O)C1)c1ccc(F)cc1F (stereo not drawn) [Compound Z295508576]
9	Cc1cc(C(=O)Nc2ccc3c(c2)CCC3)ccc1-n1cnnn1 [Compound Z365246124]
5	CC(C)c1cc(C(=O)N(C)C2CCCCC2N(C)C(=O)c2cc(C(C)C)[nH]n2)n[nH]1 (stereo not drawn) [Compound Z1511609753]
-4	CC(C)(C)OC(=O)N1CCc2nc(NC(=O)c3csc(-c4ccco4)n3)sc2C1 [Compound Z296452432]
-9	CN(C)c1ccc(NC(=O)N(C)C2CS(=O)(=O)c3ccc(Cl)cc32)cn1 (stereo not drawn) [Compound Z1688689058]
2	CC(Nc1ccc(C#N)cn1)c1ccc(OCc2cccnc2)cc1 (stereo not drawn) [Compound Z644822950]
26	O=C1CN(c2nc(C(F)(F)F)nc3ccsc23)CCN1 [Compound Z370715174]
-14	NC(=O)Nc1ccc(NC(=O)Cc2csc(Cc3ccccc3)n2)cc1 [Compound Z383135670]
-4	COC(=O)c1sc2ncc(/C=C3\C(=O)Nc4ccccc43)cc2c1C [Compound Z872035512]
-7	Cc1cc(N(Cc2cn3ccsc3n2)C(C)C)ccc1C(N)=O [Compound Z1127155490]
-25	Cc1cccc(NC(=O)CN2CCN(C(=O)CN3C(=O)Cn4c(cc5ccccc54)C3=O)CC2)c1C [Compound Z826666316]
4	O=C(Nc1n[nH]c(-c2ccccn2)n1)c1ccc(-n2cccn2)c(F)c1 [Compound Z1128365659]
11	CC(CNc1ncnc2c1cnn2CCO)Cn1cccn1 (stereo not drawn) [Compound Z990883644]
9	Cc1ccc(Cn2c(=O)c3c(nc4n(-c5ccc(S(N)(=O)=O)cc5)c(C)cn34)n(C)c2=O)cc1 [Compound Z244561242]
13	Cc1cccc(C)c1OCC(O)CNc1ncnc2sc(C)c(C)c12 (stereo not drawn) [Compound Z838103434]
6	CN(C)C1(CNC(=O)CNC(=O)c2cc(F)cc(F)c2)CCOCC1 [Compound Z1199845522]
-29	CS(=O)(=O)c1ccc(C(=O)NCc2ccc(-n3ccnc3)c(F)c2)cc1 [Compound Z826157056]
-21	Cn1ncc2c(N(Cc3ccccc3F)C3CC3)ncnc21 [Compound Z328694806]
-15	Cc1cc(NC(=O)/C=C/c2csc(C)n2)n(CCC#N)n1 [Compound Z826713788]
-2	COCCOc1ccc(CNc2ncnc3ccccc23)cn1 [Compound Z645525338]
